# Literature values in article PMC7357848 (Journal of Chemical Information and Modeling, 2020).
# System: hERG
# Conditions: IC50 with SP over IC50 with Protocol-O; ref 5 (Yao et al. 2005)
substance,measurement,value
BeKm-1,IC50 ratio,10.3
